Source: the supplement of paper PMC13207355

What was measured:
Conditions in all cases: exposure time: 72 h
E31 [1] = patient-derived glioblastoma stem cells of proneural subtype; assay: phenotypic distance (Euclidean, principal components) from DMSO controls (arbitrary units); higher = stronger morphological change
FT3469 [2] = normal neural stem cell line; assay: as above
E57 [3] = patient-derived glioblastoma stem cells of mesenchymal subtype; assay: as above
E21 [4] = patient-derived glioblastoma stem cells of mesenchymal subtype; assay: as above
E13 [5] = patient-derived glioblastoma stem cells of classical subtype; assay: as above
E28 [6] = patient-derived glioblastoma stem cells of classical subtype; assay: as above
E34 [7] = patient-derived glioblastoma stem cells of proneural subtype; assay: as above
E31 [8] = assay: surviving fraction (nuclei count normalised to DMSO); higher = more cells surviving (less toxic)
FT3469 [9] = assay: as above
E57 [10] = assay: as above
E21 [11] = assay: as above
E13 [12] = assay: as above
E28 [13] = assay: as above
E34 [14] = assay: as above
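For phenotypic distance (Euclidean, principal components) from DMSO controls in this document: cell Painting imaging in 384-well plates, CellProfiler features reduced to at least 20 principal components, Euclidean distance versus same-plate DMSO vehicle wells (0.1% v/v), median over six images per well.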
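For surviving fraction (nuclei count normalised to DMSO) in this document: nuclei counted by high-content imaging of Hoechst-stained cells in laminin-coated 384-well plates, relative to 0.1% DMSO vehicle wells, with staurosporine as cell-death control.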

CNc1ccc2oc(C[C@H]3O[C@@]4(CC[C@H]3C)O[C@H]([C@H](C)C(=O)c3ccc[nH]3)[C@H](C)C[C@H]4C)nc2c1C(=O)O [Calcimycin]
Conditions | phenotypic distance | surviving fraction
E13 [5], 4.1 nM | 1 | –
E13 [5], 12.3 nM | 0.71 | –
E13 [5], 37 nM | 1.46 | –
E13 [5], 111.1 nM | 3.31 | –
E13 [5], 333.3 nM | 6.79 | –
E13 [5], 1000 nM | 7.97 | –
E13 [5], 3000 nM | 8.33 | –
E13 [12], 4.1 nM | – | 0.894
E13 [12], 12.3 nM | – | 0.814
E13 [12], 37 nM | – | 0.678
E13 [12], 111.1 nM | – | 0.576
E13 [12], 333.3 nM | – | 0.266
E13 [12], 1000 nM | – | 0.11
E13 [12], 3000 nM | – | 0.061
E21 [4], 4.1 nM | 0.571 | –
E21 [4], 12.3 nM | 0.699 | –
E21 [4], 37 nM | 0.538 | –
E21 [4], 111.1 nM | 1.96 | –
E21 [4], 333.3 nM | 7.08 | –
E21 [4], 1000 nM | 8.73 | –
E21 [4], 3000 nM | 12.7 | –
E21 [11], 4.1 nM | – | 0.98
E21 [11], 12.3 nM | – | 0.993
E21 [11], 37 nM | – | 0.951
E21 [11], 111.1 nM | – | 0.887
E21 [11], 333.3 nM | – | 0.438
E21 [11], 1000 nM | – | 0.0684
E21 [11], 3000 nM | – | 0.00892
E28 [6], 4.1 nM | 0.698 | –
E28 [6], 12.3 nM | 0.777 | –
E28 [6], 37 nM | 0.856 | –
E28 [6], 111.1 nM | 1.27 | –
E28 [6], 333.3 nM | 2.95 | –
E28 [6], 1000 nM | 5.6 | –
E28 [6], 3000 nM | 6.55 | –
E28 [13], 4.1 nM | – | 1.07
E28 [13], 12.3 nM | – | 1.19
E28 [13], 37 nM | – | 0.999
E28 [13], 111.1 nM | – | 0.82
E28 [13], 333.3 nM | – | 0.391
E28 [13], 1000 nM | – | 0.0896
E28 [13], 3000 nM | – | 0.0448
E31 [1], 4.1 nM | 0.62 | –
E31 [1], 12.3 nM | 0.642 | –
E31 [1], 37 nM | 0.72 | –
E31 [1], 111.1 nM | 2.33 | –
E31 [1], 333.3 nM | 7.91 | –
E31 [1], 1000 nM | 11 | –
E31 [1], 3000 nM | 10.4 | –
E31 [8], 4.1 nM | – | 0.918
E31 [8], 12.3 nM | – | 0.898
E31 [8], 37 nM | – | 1
E31 [8], 111.1 nM | – | 0.786
E31 [8], 333.3 nM | – | 0.259
E31 [8], 1000 nM | – | 0.00976
E31 [8], 3000 nM | – | 0.00976
E34 [7], 4.1 nM | 1.43 | –
E34 [7], 12.3 nM | 1.06 | –
E34 [7], 37 nM | 1.29 | –
E34 [7], 111.1 nM | 1.9 | –
E34 [7], 333.3 nM | 5.09 | –
E34 [7], 1000 nM | 6.74 | –
E34 [7], 3000 nM | 8.56 | –
E34 [14], 4.1 nM | – | 0.804
E34 [14], 12.3 nM | – | 0.991
E34 [14], 37 nM | – | 0.946
E34 [14], 111.1 nM | – | 0.787
E34 [14], 333.3 nM | – | 0.467
E34 [14], 1000 nM | – | 0.381
E34 [14], 3000 nM | – | 0.143
E57 [3], 4.1 nM | 1.32 | –
E57 [3], 12.3 nM | 0.365 | –
E57 [3], 37 nM | 1.3 | –
E57 [3], 111.1 nM | 3.84 | –
E57 [3], 333.3 nM | 7.84 | –
E57 [3], 1000 nM | 9.39 | –
E57 [3], 3000 nM | 9.11 | –
E57 [10], 4.1 nM | – | 1.07
E57 [10], 12.3 nM | – | 0.989
E57 [10], 37 nM | – | 0.871
E57 [10], 111.1 nM | – | 0.561
E57 [10], 333.3 nM | – | 0.201
E57 [10], 1000 nM | – | 0.0743
E57 [10], 3000 nM | – | 0.0336
FT3469 [2], 4.1 nM | 1.09 | –
FT3469 [2], 12.3 nM | 0.726 | –
FT3469 [2], 37 nM | 1.32 | –
FT3469 [2], 111.1 nM | 1.82 | –
FT3469 [2], 333.3 nM | 3.73 | –
FT3469 [2], 1000 nM | 6.31 | –
FT3469 [2], 3000 nM | 5.79 | –
FT3469 [9], 4.1 nM | – | 1.05
FT3469 [9], 12.3 nM | – | 0.987
FT3469 [9], 37 nM | – | 0.999
FT3469 [9], 111.1 nM | – | 0.849
FT3469 [9], 333.3 nM | – | 0.578
FT3469 [9], 1000 nM | – | 0.25
FT3469 [9], 3000 nM | – | 0.118
